Data from ChEMBL document CHEMBL4304811, “Development of a Water-Soluble Indolylmaleimide Derivative IM-93 Showing Dual Inhibition of Ferroptosis and NETosis” (ACS Med Chem Lett, 2019).

What was measured:
[1] = molecular target: 5'-AMP-activated protein kinase catalytic subunit alpha-1 (Homo sapiens) (UniProt Q13131); test: Binding affinity to wild-type human partial length AMPK alpha1 (M1 to E306 residues) expressed in bacterial expression system assessed as residual binding level at 10 uM by Kinomescan method relative to control
[2] = molecular target: Tyrosine-protein kinase Blk (Homo sapiens) (UniProt P51451); test: Binding affinity to wild-type human partial length BLK (G211 to L503 residues) expressed in bacterial expression system assessed as residual binding level at 10 uM by Kinomescan method relative to control
[3] = molecular target: Calcium/calmodulin-dependent protein kinase type 1 (Homo sapiens) (UniProt Q14012); test: Binding affinity to wild-type human full length CAMK1 (M1 to L370 residues) expressed in bacterial expression system assessed as residual binding level at 10 uM by Kinomescan method relative to control
[4] = molecular target: Calcium/calmodulin-dependent protein kinase type 1G (Homo sapiens) (UniProt Q96NX5); test: Binding affinity to wild-type human partial length CAMK1G (M1 to A342 residues) expressed in bacterial expression system assessed as residual binding level at 10 uM by Kinomescan method relative to control
[5] = molecular target: Calcium/calmodulin-dependent protein kinase type II subunit gamma (Homo sapiens) (UniProt Q13555); test: Binding affinity to wild-type human partial length CAMK2G (R9 to A303 residues) expressed in bacterial expression system assessed as residual binding level at 10 uM by Kinomescan method relative to control
[6] = molecular target: Cyclin-dependent kinase 3 (Homo sapiens) (UniProt Q00526); test: Binding affinity to wild-type human full length CDK3 (M1 to H305 residues) expressed in bacterial expression system assessed as residual binding level at 10 uM by Kinomescan method relative to control
[7] = molecular target: Discoidin domain-containing receptor 2 (Homo sapiens) (UniProt Q16832); test: Binding affinity to wild-type human partial length DDR2 (V555 to E855 residues) expressed in mammalian expression system assessed as residual binding level at 10 uM by Kinomescan method relative to control
[8] = molecular target: Epidermal growth factor receptor (Homo sapiens) (UniProt P00533); test: Binding affinity to wild-type human partial length EGFR (R669 to V1011 residues) expressed in bacterial expression system assessed as residual binding level at 10 uM by Kinomescan method relative to control
[9] = molecular target: Mitogen-activated protein kinase 4 (Homo sapiens) (UniProt P31152); test: Binding affinity to wild-type human partial length ERK4 (M1 to L365 residues) expressed in bacterial expression system assessed as residual binding level at 10 uM by Kinomescan method relative to control
[10] = molecular target: Fibroblast growth factor receptor 2 (Homo sapiens) (UniProt P21802); test: Binding affinity to wild-type human partial length FGFR2 (D457 to E769 residues) expressed in bacterial expression system assessed as residual binding level at 10 uM by Kinomescan method relative to control
[11] = molecular target: Cyclin-G-associated kinase (Homo sapiens) (UniProt O14976); test: Binding affinity to wild-type human partial length GAK (G13 to Y338 residues) expressed in bacterial expression system assessed as residual binding level at 10 uM by Kinomescan method relative to control
[12] = molecular target: Homeodomain-interacting protein kinase 4 (Homo sapiens) (UniProt Q8NE63); test: Binding affinity to wild-type human partial length HIPK4 (M1 to V384 residues) expressed in bacterial expression system assessed as residual binding level at 10 uM by Kinomescan method relative to control
[13] = molecular target: Mitogen-activated protein kinase kinase kinase 10 (Homo sapiens) (UniProt Q02779); test: Binding affinity to wild-type human partial length MLK2 (V52 to W380 residues) expressed in bacterial expression system assessed as residual binding level at 10 uM by Kinomescan method relative to control
[14] = molecular target: Serine/threonine-protein kinase Nek6 (Homo sapiens) (UniProt Q9HC98); test: Binding affinity to wild-type human full length NEK6 (M8 to T313 residues) expressed in bacterial expression system assessed as residual binding level at 10 uM by Kinomescan method relative to control
[15] = molecular target: Cyclin-dependent kinase 15 (Homo sapiens) (UniProt Q96Q40); test: Binding affinity to wild-type human full length PFTAIRE2 (M1 to W384 residues) expressed in bacterial expression system assessed as residual binding level at 10 uM by Kinomescan method relative to control
[16] = molecular target: Phosphorylase b kinase gamma catalytic chain, skeletal muscle/heart isoform (Homo sapiens) (UniProt Q16816); test: Binding affinity to wild-type human full length PHKG1 (M1 to Y387 residues) expressed in bacterial expression system assessed as residual binding level at 10 uM by Kinomescan method relative to control
[17] = system: Phosphatidylinositol 4,5-bisphosphate 3-kinase catalytic subunit alpha isoform (Homo sapiens), P42336 [H1047Y]; test: Binding affinity to human partial length PIK3CA H1047Y mutant (R108 to N1068 residues) expressed in mammalian expression system assessed as residual binding level at 10 uM by Kinomescan method relative to control
[18] = molecular target: Receptor-interacting serine/threonine-protein kinase 2 (Homo sapiens) (UniProt O43353); test: Binding affinity to wild-type human partial length RIPK2 (M1 to K310 residues) expressed in bacterial expression system assessed as residual binding level at 10 uM by Kinomescan method relative to control
[19] = molecular target: Serine/threonine-protein kinase SIK1 (Homo sapiens) (UniProt P57059); test: Binding affinity to wild-type human partial length SIK (M1 to Y304 residues) expressed in bacterial expression system assessed as residual binding level at 10 uM by Kinomescan method relative to control
[20] = molecular target: Serine/threonine-protein kinase TAO3 (Homo sapiens) (UniProt Q9H2K8); test: Binding affinity to wild-type human partial length TAOK3 (M1 to T316 residues) expressed in mammalian expression system assessed as residual binding level at 10 uM by Kinomescan method relative to control
[21] = molecular target: Serine/threonine-protein kinase WNK1 (Homo sapiens) (UniProt Q9H4A3); test: Binding affinity to wild-type human partial length WNK1 (Q194 to A490 residues) expressed in mammalian expression system assessed as residual binding level at 10 uM by Kinomescan method relative to control
[22] = molecular target: Mitogen-activated protein kinase kinase kinase 20 (Homo sapiens) (UniProt Q9NYL2); test: Binding affinity to wild-type human partial length ZAK (M1 to L331 residues) expressed in bacterial expression system assessed as residual binding level at 10 uM by Kinomescan method relative to control
[23] = Stability of compound in D2O at 0.012 mmol followed by H2O2 addition measured after 2 hrs by 1H-NMR spectroscopy; type: physicochemical
[24] = system: NIH3T3; test: Inhibition of TBHP-induced ferroptosis in mouse NIH/3T3 cells after 12 hrs by WST-8 assay; type: functional, cell-based; settings: NIH3T3, 12 h
[25] = molecular target: Mitogen-activated protein kinase kinase kinase 12 (DLK) (Homo sapiens) (UniProt Q12852); test: Binding affinity to wild-type human full length DLK (M1 to P859 residues) expressed in mammalian expression system assessed as residual binding level at 10 uM by Kinomescan method relative to control

Chain of Receptor-interacting serine/threonine-protein kinase 2 (Homo sapiens) (O43353 whole entry, the tested form may be a part): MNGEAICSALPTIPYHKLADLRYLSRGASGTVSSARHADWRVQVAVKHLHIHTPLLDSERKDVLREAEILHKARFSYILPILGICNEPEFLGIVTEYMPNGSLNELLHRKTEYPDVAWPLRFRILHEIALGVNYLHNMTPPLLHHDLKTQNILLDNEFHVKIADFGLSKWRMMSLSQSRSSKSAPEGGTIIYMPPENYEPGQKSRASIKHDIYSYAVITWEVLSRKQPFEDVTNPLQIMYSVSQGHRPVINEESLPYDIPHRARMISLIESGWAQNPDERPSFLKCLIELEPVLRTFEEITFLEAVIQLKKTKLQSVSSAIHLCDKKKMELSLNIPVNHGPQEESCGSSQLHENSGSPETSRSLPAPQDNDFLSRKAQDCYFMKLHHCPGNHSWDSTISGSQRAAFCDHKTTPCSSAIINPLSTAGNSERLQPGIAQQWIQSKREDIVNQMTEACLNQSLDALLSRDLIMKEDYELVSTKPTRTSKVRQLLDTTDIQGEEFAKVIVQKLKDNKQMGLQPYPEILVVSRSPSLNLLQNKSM
Chain of Serine/threonine-protein kinase SIK1 (Homo sapiens) (P57059 whole entry, the tested form may be a part): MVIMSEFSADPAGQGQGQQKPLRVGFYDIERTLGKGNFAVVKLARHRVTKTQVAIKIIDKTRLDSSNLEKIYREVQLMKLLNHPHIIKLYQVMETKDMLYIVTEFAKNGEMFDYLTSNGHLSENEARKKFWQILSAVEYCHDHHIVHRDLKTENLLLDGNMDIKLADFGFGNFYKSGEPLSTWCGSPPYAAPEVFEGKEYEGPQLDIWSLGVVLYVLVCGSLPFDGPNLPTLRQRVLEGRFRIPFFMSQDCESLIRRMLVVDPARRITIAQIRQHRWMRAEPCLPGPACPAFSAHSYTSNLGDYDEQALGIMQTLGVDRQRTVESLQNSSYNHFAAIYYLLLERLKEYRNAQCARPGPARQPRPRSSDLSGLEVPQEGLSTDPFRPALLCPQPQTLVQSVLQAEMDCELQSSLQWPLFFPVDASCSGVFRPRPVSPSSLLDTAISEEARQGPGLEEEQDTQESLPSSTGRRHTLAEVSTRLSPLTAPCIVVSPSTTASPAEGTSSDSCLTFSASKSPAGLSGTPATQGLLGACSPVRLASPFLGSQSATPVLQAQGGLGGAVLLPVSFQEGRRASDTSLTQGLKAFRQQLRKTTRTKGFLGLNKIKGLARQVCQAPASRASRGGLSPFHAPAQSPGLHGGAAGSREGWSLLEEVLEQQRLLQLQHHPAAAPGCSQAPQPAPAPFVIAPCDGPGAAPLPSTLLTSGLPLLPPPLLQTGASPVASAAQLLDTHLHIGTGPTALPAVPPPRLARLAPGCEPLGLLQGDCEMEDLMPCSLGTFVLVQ
Chain of Calcium/calmodulin-dependent protein kinase type II subunit gamma (Homo sapiens) (Q13555 whole entry, the tested form may be a part): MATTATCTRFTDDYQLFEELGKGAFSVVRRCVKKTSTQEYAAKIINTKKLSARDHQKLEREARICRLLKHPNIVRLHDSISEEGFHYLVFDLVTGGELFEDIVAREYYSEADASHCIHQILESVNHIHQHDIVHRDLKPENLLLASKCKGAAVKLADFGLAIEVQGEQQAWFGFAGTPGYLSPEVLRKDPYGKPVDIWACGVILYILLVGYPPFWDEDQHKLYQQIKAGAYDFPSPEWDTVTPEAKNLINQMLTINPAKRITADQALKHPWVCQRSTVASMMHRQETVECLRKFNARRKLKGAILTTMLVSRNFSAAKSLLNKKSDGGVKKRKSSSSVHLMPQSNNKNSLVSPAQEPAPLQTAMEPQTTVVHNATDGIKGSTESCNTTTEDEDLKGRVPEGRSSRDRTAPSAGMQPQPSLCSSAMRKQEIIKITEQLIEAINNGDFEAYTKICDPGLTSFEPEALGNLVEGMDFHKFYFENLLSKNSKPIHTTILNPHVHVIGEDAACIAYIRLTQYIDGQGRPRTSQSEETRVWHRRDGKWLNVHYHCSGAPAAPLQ
Chain of Fibroblast growth factor receptor 2 (Homo sapiens) (P21802 22-821 limits assumed): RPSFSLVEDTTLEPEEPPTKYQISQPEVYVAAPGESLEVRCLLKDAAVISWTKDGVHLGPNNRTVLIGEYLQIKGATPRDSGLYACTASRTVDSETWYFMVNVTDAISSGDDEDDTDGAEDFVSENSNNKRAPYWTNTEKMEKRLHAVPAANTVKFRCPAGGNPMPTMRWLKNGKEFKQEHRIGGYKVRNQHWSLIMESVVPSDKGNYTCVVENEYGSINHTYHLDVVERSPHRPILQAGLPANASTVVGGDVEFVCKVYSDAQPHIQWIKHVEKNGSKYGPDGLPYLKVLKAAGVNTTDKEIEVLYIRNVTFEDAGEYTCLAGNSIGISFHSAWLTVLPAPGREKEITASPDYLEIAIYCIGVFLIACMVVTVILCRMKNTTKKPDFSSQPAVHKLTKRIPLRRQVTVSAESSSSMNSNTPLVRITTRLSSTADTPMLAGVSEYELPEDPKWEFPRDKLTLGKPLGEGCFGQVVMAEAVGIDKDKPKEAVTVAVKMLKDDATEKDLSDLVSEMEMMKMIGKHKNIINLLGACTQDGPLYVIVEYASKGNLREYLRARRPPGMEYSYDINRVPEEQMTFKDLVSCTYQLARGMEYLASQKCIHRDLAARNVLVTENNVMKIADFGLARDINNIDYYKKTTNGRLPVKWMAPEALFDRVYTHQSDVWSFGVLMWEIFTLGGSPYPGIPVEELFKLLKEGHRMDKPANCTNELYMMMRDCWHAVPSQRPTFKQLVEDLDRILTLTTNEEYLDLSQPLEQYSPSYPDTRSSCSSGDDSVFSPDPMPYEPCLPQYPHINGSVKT
Chain of Serine/threonine-protein kinase Nek6 (Homo sapiens) (Q9HC98 whole entry, the tested form may be a part): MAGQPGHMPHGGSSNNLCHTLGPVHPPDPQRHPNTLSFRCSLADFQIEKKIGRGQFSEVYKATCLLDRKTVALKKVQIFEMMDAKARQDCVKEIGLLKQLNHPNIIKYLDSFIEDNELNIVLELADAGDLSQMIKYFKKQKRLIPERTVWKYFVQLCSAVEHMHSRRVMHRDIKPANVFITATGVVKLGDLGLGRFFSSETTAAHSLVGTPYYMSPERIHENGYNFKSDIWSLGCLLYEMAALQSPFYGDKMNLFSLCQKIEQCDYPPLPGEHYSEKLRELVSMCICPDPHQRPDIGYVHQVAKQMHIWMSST
Chain of Cyclin-dependent kinase 3 (Homo sapiens) (Q00526 whole entry, looked up, the tested form may be a part): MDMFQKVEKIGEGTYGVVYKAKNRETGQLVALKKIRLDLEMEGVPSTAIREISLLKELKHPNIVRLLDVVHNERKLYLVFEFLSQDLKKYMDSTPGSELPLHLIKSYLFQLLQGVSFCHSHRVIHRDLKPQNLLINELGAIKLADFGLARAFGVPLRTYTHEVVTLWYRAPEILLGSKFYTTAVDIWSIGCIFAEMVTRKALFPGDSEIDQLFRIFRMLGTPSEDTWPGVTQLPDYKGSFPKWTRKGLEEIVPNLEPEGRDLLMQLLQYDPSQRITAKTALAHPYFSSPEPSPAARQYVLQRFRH
Chain of Mitogen-activated protein kinase kinase kinase 20 (Homo sapiens) (Q9NYL2 2-800 limits assumed): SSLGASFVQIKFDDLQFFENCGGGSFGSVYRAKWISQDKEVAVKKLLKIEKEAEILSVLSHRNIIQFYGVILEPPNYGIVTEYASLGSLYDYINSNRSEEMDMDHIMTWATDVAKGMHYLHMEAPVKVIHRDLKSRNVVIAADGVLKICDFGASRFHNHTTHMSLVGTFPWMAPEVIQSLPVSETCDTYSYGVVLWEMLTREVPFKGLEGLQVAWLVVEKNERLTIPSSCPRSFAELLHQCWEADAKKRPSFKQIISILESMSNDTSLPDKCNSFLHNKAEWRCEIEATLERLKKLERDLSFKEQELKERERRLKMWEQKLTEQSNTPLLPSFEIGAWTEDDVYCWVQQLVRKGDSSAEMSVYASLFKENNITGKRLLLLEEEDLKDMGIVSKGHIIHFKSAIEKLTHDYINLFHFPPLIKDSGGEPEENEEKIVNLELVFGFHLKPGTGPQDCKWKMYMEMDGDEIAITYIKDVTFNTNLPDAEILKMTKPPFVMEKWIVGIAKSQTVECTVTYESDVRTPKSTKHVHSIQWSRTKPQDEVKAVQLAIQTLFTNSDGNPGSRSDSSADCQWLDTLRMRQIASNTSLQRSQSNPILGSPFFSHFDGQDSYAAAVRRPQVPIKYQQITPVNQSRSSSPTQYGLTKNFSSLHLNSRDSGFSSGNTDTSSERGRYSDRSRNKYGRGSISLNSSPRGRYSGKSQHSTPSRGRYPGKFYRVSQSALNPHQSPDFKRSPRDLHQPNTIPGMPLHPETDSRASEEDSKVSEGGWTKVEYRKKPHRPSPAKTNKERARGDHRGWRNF
Chain of Tyrosine-protein kinase Blk (Homo sapiens) (P51451 2-505 limits assumed): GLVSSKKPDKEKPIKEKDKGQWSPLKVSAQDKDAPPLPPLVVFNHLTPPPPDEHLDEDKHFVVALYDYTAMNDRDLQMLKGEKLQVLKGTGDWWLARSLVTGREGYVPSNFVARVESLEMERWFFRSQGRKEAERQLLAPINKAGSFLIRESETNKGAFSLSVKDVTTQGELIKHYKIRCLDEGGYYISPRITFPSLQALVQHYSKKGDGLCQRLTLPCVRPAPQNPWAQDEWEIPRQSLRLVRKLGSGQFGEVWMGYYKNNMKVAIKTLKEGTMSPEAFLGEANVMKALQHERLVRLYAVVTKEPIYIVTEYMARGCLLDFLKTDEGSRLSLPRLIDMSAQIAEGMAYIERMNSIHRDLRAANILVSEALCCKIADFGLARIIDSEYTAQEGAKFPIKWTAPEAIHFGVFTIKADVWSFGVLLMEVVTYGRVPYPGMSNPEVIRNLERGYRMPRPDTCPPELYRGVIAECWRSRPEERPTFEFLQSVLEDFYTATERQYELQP
Chain of Calcium/calmodulin-dependent protein kinase type 1 (Homo sapiens) (Q14012 whole entry, looked up, the tested form may be a part): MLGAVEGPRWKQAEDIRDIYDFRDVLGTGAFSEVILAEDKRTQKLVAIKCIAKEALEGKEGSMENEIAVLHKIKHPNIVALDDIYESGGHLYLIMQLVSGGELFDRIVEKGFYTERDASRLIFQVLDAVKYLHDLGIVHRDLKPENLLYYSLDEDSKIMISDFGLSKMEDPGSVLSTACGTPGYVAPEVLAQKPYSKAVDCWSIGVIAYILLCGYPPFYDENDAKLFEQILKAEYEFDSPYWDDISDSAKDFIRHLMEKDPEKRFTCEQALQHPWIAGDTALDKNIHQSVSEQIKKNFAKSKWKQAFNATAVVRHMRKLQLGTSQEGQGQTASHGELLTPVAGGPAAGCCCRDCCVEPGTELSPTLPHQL

CC(C)N1C(=O)C(NCCCN(C)C)=C(c2cn(C)c3ccccc23)C1=O.Cl
Activity [1]: 93% | Activity [2]: 98% | Activity [3]: 100% | Activity [4]: 95% | Activity [5]: 83% | Activity [6]: 99% | Activity [7]: 100% | Activity [8]: 89% | Activity [9]: 100% | Activity [10]: 100% | Activity [11]: 94% | Activity [12]: 84% | Activity [13]: 83% | Activity [14]: 100% | Activity [15]: 99% | Activity [16]: 94% | Activity [17]: 94% | Activity [18]: 100% | Activity [19]: 95% | Activity [20]: 88% | Activity [21]: 68% | Activity [22]: 84% | Stability [23]: Stable | IC50 [24]: 1800 nM | Activity [25]: 99%
